Experimental data reported in ChEMBL document CHEMBL3272313, “3-Hydroxy-17-aralkylmorphinans as potential opiate receptor-site-directed alkylating agents” (J Med Chem, 1977).
Activity calls are given as the source filed them. No cut-off for these calls is given here.

Legend:
[1] = test system: Mus musculus; assay: Analgesic activity in sc dosed Swiss-Webster mouse time of peak effect; assay type: functional
[2] = test system: Mus musculus; assay: Analgesic activity in sc dosed Swiss-Webster mouse after 30 mins; assay type: functional; settings: 0.5 h
[3] = test system: Mus musculus; assay: Analgesic activity in sc dosed Swiss-Webster mouse after 6.5 hrs; assay type: functional, organism-based
[4] = test system: Mus musculus; assay: Analgesic activity in Swiss-Webster mouse assessed as time required for sustainance of activity at 70 mg/kg, sc; assay type: functional; settings: route subcutaneous

Question: With `O=C(CBr)Nc1ccccc1CCN1CC[C@]23CCCC[C@H]2[C@H]1Cc1ccc(O)cc13` as the compound, how does the Time [1] read?
Answer: Its Time is 30 min.

Question: And the ED50 [2]?
Answer: Its ED50 is 16 mg/kg.

Question: And the Activity [3]?
Answer: The Activity was “Active”.

Question: And the Time [4]?
Answer: The Time was 6.5 h.
